{"source": "patent US20100145469A1", "about": "“BIOCERAMIC IMPLANTS HAVING BIOACTIVE SUBSTANCE” (priority 2007, published 2010)", "tested_on": "angiogenesis", "experiment": "Peritoneal implantation of Y-pore bioceramic implants in mice for 15 days, wound tissue and angiogenesis patterns", "settings": "for tissue response in pores: mice", "key": {"[1]": {"settings": "DCPD implant treated with VEGF at the blind end of the closed pore"}}, "note": "“Also recorded” adds a separate entry of the source.", "text": "In order to produce model implants for the investigation of spatially localized release of both organic (VEGF), a Y shaped hemi-cylindrical pore channel was designed in the x-y plane of DCPD cuboids with dimensions 8 mm×8 mm×3 mm. The bioceramic endoprosthesis was made in two mirror image halves 50, 52 that keyed into one another to form a Y shaped pore 51a, 51b closed at one of the branched ends (see FIGS. 2A-2C). […] In the experiments, mouse VEGF solution was deposited at the end of the closed pore.\nWound tissue and angiogenesis patterns were examined for the implanted bioceramic endoprosthesis after peritoneal implantation of the bioceramic endoprosthesis in mice for 15 days.\nFor experimental analysis, VEGF-impregnated bioceramic materials were prepared by passive adsorption of 200 ng or 2 μg final amount of mouse VEGF (R&D, Cedarlane Laboratories Ltd., Canada) diluted in a 5 μl volume of Hank's balanced salt solution (HBSS). Adsorption of VEGF was performed on each half of the bioceramic endoprosthesis (see FIGS. 2A-2D) at the closed end (3) of the Y-shape pore. Specimens were air-dried under a sterile laminar flow hood. Prior to VEGF impregnation, the bioceramic materials were sterilized by soaking in 70% ethanol, followed by a HEPES-NaCl buffered solution rinse, HBSS (×3), and then air-dried. Control material specimens were also impregnated with HBSS without VEGF. Higher concentrations of VEGF (400 μg/ml) were also investigated.", "data": [{"substance": "vascular endothelial growth factor [VEGF]", "values": [{"measurement": "microvessel formation (microscopic observation, FIG. 3A)", "setting": "[1]", "value": "microvessel formation in the tissue only in the closed pore ends"}, {"measurement": "tissue in-growth (photographs, FIG. 3A)", "setting": "[1]", "value": "well formed vascular tissue extended from the main pore opening to closed pore end"}, {"measurement": "tissue response in pores", "setting": "DCPD implant, 200 ng VEGF deposited in closed pore ends, 15 days", "value": "vascular tissue throughout the pore channels; also recorded: Vascularised tissue was found inside the main open and closed pore channels"}, {"measurement": "tissue response in pores", "setting": "DCPD implant, 2 μg VEGF deposited in pore ends, 15 days", "value": "vascular tissue throughout the pore channels"}, {"measurement": "angiogenic effect compared with untreated DCPD control (quantitative measurements)", "setting": "DCPD implant, 15 days", "value": "significantly enhanced angiogenic effect"}, {"measurement": "tissue response in pores", "setting": "HA implants containing VEGF, 15 days", "value": "very little tissue ingrowth"}, {"measurement": "vascularization pattern in pores", "setting": "HA implants, 2 μg VEGF deposited in closed pore ends, 15 days implantation", "value": "mostly filled with clear connective tissue"}, {"measurement": "length of pore into which blood vessels extended", "setting": "factor deposited at closed pore end of model implant, peritoneal implantation 15 days, factor-free controls 2 mm", "value": 7, "unit": "mm"}]}]}
